Target: T1, human GOAT (Homo sapiens, UniProt Q96T53)
T1 construct: expressed in transfected cells; host or cells: HEK293 (Hek293 hGOAT/PPGhrl Clone #1B8), stably transfected
T1 sequence (Q96T53 1-435): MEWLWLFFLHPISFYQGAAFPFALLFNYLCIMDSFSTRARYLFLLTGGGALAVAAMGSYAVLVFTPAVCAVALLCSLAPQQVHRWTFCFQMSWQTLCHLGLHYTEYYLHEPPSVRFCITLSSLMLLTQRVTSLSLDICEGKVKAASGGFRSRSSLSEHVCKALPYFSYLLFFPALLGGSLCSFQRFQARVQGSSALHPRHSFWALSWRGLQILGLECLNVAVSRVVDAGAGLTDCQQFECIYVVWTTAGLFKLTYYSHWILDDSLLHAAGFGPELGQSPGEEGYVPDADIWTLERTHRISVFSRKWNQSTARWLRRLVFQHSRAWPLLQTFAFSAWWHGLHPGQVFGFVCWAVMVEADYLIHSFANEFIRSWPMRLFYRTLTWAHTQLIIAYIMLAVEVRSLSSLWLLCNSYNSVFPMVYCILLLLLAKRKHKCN
Test: Determination of hGOAT activity in HEK293 cells after incubation with test compound (acyl-ghrelin ELISA)
Type: cell-based
Conditions: HEK293 cells stably transfected with preproghrelin and human GOAT; octanoate-BSA 100 μM, 5 hours incubation; acyl-ghrelin in medium by ELISA; 8 compound concentrations
Experimental: Determination of hGOAT Activity in HEK293 Cells after Incubation with Test Compound
HEK293 cells stably transfected with two expression vectors, one coding for preproghrelin cDNA and a second for the expression of human GOATcDNA are used as a cellular model. After feeding the cells with octanoic acid for 5 hours, acyl-ghrelin is measured in cell culture medium by an ELISA procedure.
Cellline: Hek293 hGOAT/PPGhrl Clone #1B8 Sodium octanoate, Sigma, Cat.-No. C5038
BD Poly-D-Lysin 384-well Plates, black-clear polystyrene BD Bioscience Cat.-No. […] ELISA human acylated Ghrelin Kit purchased from Bertin Pharman (detailed composition of buffers e.g. wash-puffer, ELISA buffer not known) All further reagents used were of highest analytical grade available.
Cells are plated with a density of 5000 cells/well in 384-well poly-D-lysin plates and incubated for 1 day at 37° C., 5% CO2 in DMEM medium, 10% FCS, 1×NEAA, Puromycin (0.5 μg/ml) and G418 (1 mg/ml). Then the medium is changed to a identical medium without FCS and containing Octanoate-BSA (final concentration 100 μM each) and compound in DMSO (final DMSO concentration 0.3%). After incubation for 5 hours acylghrelin in the medium is measured by ELISA.
The medium sample is diluted 1:25 in Elisa buffer, a 25 μl aliquot is transferred to a 384-well ELISA plate previously washed 4 times with 100 μL wash buffer, and 25 μl tracer-solution is added. After incubation overnight (˜20 h) at 4° C. temperature the plate is washed 4 times with 100 μl wash-buffer per well. Finally 50 μl Ellman's reagent is added to each well and the plate is incubated in the dark for 20 minutes. The absorbance is measured at 405 nm in an Envision multilabel reader and the amount of acylated ghrelin is calculated according to a acylated ghrelin standard curve provided in the same plate.
The analysis of the data is performed by calculation of the percentage of acyl-ghrelin produced in the presence of test compound compared to the amount of acyl-ghrelin produced in the vehicle control samples. An inhibitor of the GOAT enzyme will give values between 100% CTL (no inhibition) and 0% CTL (complete inhibition).
IC50 values are calculated with Assay Explorer or other suited software based on curve fitting of results of 8 different compound concentrations.

Structure (SMILES)	IC50 [nM]
Cc1nc2nonc2c(N)c1CN1CCC(C(C)(C)O)C1 (centres unmarked) [Example 1.11]	5
Cc1nc2nonc2c(N)c1CN1CCC(C#N)CC1 [Example 1.2]	3.6
Cc1nc2nonc2c(N)c1CN1CCC(C(F)F)CC1 [Example 1.1, 6-{[4-(Difluoromethyl)piperidin-1-yl]methyl}-5-methyl-[1,2,5]oxadiazolo[3,4-b]pyridin-7-amine]	1.3
Cc1nc2nonc2c(N)c1CN1CCC(S(C)(=O)=O)CC1 [Example 1.3]	4.1
Cc1nc2nonc2c(N)c1CN1CCC(OC(F)(F)F)CC1 [Example 1.4]	0.56
Cc1nc2nonc2c(N)c1CN1CCC(c2cccc(C(F)(F)F)c2)C1 (centres unmarked) [Example 1.8]	1.4
Cc1nc2nonc2c(N)c1CN1CCC(O)(C(F)(F)F)C1 (centres unmarked) [Example 1.9]	1.1
Cc1nc2nonc2c(N)c1CN1CCC(F)(F)C1 [Example 1.12]	7
Cc1nc2nonc2c(N)c1CN1CCN(S(C)(=O)=O)CC1 [Example 1.13]	5.2
Cc1nc2nonc2c(N)c1CN1CCC(C(F)(F)F)C1 (centres unmarked) [Example 1.7]	0.56
Cc1nc2nonc2c(N)c1CN1CC(C(F)(F)F)C1 [Example 1.6]	1.9
Cc1nc2nonc2c(N)c1CN1CCN(C(=O)OC(C)(C)C)CC1 [Example 1.5, tert-Butyl 4-({7-amino-5-methyl-[1,2,5]oxadiazolo[3,4-b]pyridin-6-yl}methyl)piperazine-1-carboxylate]	0.43

Further lines, results first:

IC50 [nM]	Structure (SMILES)
5.7	Cc1nc2nonc2c(N)c1CN1CCN(C(=O)C(F)(F)F)CC1 [Example 2.1, 1-[4-({7-Amino-5-methyl-[1,2,5]oxadiazolo[3,4-b]pyridin-6-yl}methyl)piperazin-1-yl]-2,2,2-trifluoroethan-1-one]
2.2	Cc1nc2nonc2c(N)c1CN1CCC(F)(F)CC1 [Example 3.2]
7.4	Cc1nc2nonc2c(N)c1CN1CCCC(F)(F)C1 [Example 3.1, 6-(3,3-Difluoro-piperidin-1-ylmethyl)-5-methyl-[1,2,5]oxadiazolo[3,4-b]pyridin-7-ylamine]
1.3	Cc1nc2nonc2c(N)c1CN1CCC(C(F)(F)F)CC1 [Example 3.4]
6.5	COC(=O)N1CCN(Cc2c(C)nc3nonc3c2N)CC1 [Example 2.5]
0.64	Cc1nc2nonc2c(N)c1CN1CCN(S(=O)(=O)C(F)(F)F)CC1 [Example 2.2]
0.49	Cc1nc2nonc2c(N)c1CN1CCN(S(=O)(=O)C(F)F)CC1 [Example 2.6]
1.7	Cc1nc2nonc2c(N)c1CN1CCCC(C(F)(F)F)C1 (centres unmarked) [Example 3.3]
4	Cc1nc2nonc2c(N)c1CN1CCOC(C)(c2ccc(F)cc2)C1 (centres unmarked) [Example 3.5]
1.8	Cc1nc2nonc2c(N)c1CN1CCN(S(=O)(=O)C2CC2)CC1 [Example 2.4]
4.2	Cc1nc2nonc2c(N)c1CN1CCN(C(=O)C2CC2)CC1 [Example 2.3]

From US11319310B2, “Heterocyclyl-substituted oxadiazolopyridine derivatives for use as ghrelin O-acyl transferase (GOAT) inhibitors” (Boehringer Ingelheim International GmbH, priority 2018, dated 2022)
